# Data reported in patent US20230045421A1 (priority 2018, published 2023).
# Read-outs that look alike come from different tables or passages of the source.
# System: HBV rcDNA
# Test: HepDE19 assay with bDNA quantitation of HBV rcDNA
# Assay type: cell-based, hepatitis B virus
# Method in brief: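 Compounds, top concentration 25 μM in 8-point duplicate series, were applied to Tet-free HepDE19 cultures for 7 days. Branched-DNA quantitation of HBV rcDNA against untreated wells gave EC50 and EC90 by 4-parameter fit. Viability (CC50) came from ATP luminescence on parallel plates incubated 4 days.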
# [1] = HepDE19 assay, inhibition of formation of rcDNA, read-out: DE-19bDNA EC50
# [2] = HepDE19 assay, inhibition of formation of relaxed circular DNA (rcDNA), bDNA quantitation, read-out: DE-19bDNA EC50
# [3] = Hepatitis B virus, HepDE19, read-out: DE-19bDNA EC50 (μM), HepDE19 assay, inhibition of formation of relaxed circular DNA (rcDNA), bDNA quantitation
# [4] = Hepatitis B virus, HepDE19, HepDE19 assay, inhibition of formation of rcDNA, read-out: DE-19bDNA EC50
# [5] = Hepatitis B virus, HepDE19, read-out: DE-19bDNA EC50 (μM), HepDE19 assay, inhibition of formation of rcDNA
smiles,measurement,setting,value
"COCCOCCN(C(=O)Nc1ccc(F)c(Cl)c1)C(C)c1cnc(OC)c2ccccc12 (single isomer, unassigned) [Compound 122, 3-(3-Chloro-4-fluorophenyl)-1-(2-(2-methoxyethoxy)ethyl)-1-(1-(1-methoxyisoquinolin-4-yl)ethyl)urea]",EC50,[1],1.2 µM
"CC(c1cnc(C#N)c2ccccc12)N(C)C(=O)Nc1ccc(F)c(Cl)c1 (single isomer, unassigned) [Compound 336, 3-(3-Chloro-4-fluorophenyl)-1-(1-(1-cyanoisoquinolin-4-yl)ethyl)-1-methylurea]",EC50,[2],19 µM
"CC(C)CN(C(=O)Nc1ccc(F)c(Cl)c1)C(C)c1c[nH]c(=O)c2cnccc12 (single isomer, unassigned) [Compound 253, 3-(3-Chloro-4-fluorophenyl)-1-isobutyl-1-(1-(1-oxo-1,2-dihydro-2,7-naphthyridin-4-yl)ethyl)urea]",EC50,[1],1.4 µM
"CC(c1c[nH]c(=O)c2ccccc12)N(CCCC#N)C(=O)Nc1ccc(F)c(Cl)c1 (single isomer, unassigned) [Compound 115, 3-(3-Chloro-4-fluorophenyl)-1-(3-cyanopropyl)-1-(1-(1-oxo-1,2-dihydroisoquinolin-4-yl)ethyl)urea]",EC50,[1],0.01 µM
"CC(c1c[nH]c(=O)c2c(F)c(F)ccc12)N(C)C(=O)N[C@@H](C)c1ccccc1 (single isomer, unassigned) [Compound 487]",EC50,[3],23 µM
"CC(c1c[nH]c(=O)c2ccccc12)N(C[C@@H](C)O)C(=O)Nc1ccc(F)c(Cl)c1 (single isomer, unassigned) [Compound 216]",EC50,[1],0.09 µM
"CC(c1c[nH]c(=O)c2cc(Cl)ccc12)N(C)C(=O)Nc1ccc(F)c(Cl)c1 (racemic) [Compound 271, 1-(1-(7-Chloro-1-oxo-1,2-dihydroisoquinolin-4-yl)ethyl)-3-(3-chloro-4-fluorophenyl)-1-methylurea]",EC50,[4],0.2 µM
"CC(c1cnc(OCc2nc[nH]n2)c2ccccc12)N(CCCO)C(=O)Nc1ccc(F)c(Cl)c1 (single isomer, unassigned) [Compound 260, 1-(1-(1-((1H-1,2,4-Triazol-3-yl)methoxy)isoquinolin-4-yl)ethyl)-3-(3-chloro-4-fluorophenyl)-1-(3-hydroxypropyl)urea]",EC50,[1],0.019 µM
"CC(c1c[nH]c(=O)c2c(F)cccc12)N(C)C(=O)Nc1ccc(F)c(Cl)c1 (single isomer, unassigned) [Compound 356, 3-(3-Chloro-4-fluorophenyl)-1-(1-(8-fluoro-1-oxo-1,2-dihydroisoquinolin-4-yl)ethyl)-1-methylurea]",EC50,[2],1.9 µM
"CC(c1cn(Cc2nc[nH]n2)c(=O)c2ccccc12)N(C)C(=O)Nc1ccc(F)c(Cl)c1 (single isomer, unassigned) [Compound 269, 1-(1-(2-((1H-1,2,4-Triazol-3-yl)methyl)-1-oxo-1,2-dihydroisoquinolin-4-yl)ethyl)-3-(3-chloro-4-fluorophenyl)-1-methylurea]",EC50,[1],0.56 µM
"CC(c1c[nH]c(=O)c2cc(F)ccc12)N(C)C(=O)Nc1ccc(F)c(Cl)c1 (single isomer, unassigned) [Compound 263, 3-(3-Chloro-4-fluorophenyl)-1-(1-(7-fluoro-1-oxo-1,2-dihydroisoquinolin-4-yl)ethyl)-1-methylurea]",EC50,[1],0.78 µM
"CCNc1ncc(C(C)N(C)C(=O)Nc2ccc(F)c(Cl)c2)c2ccccc12 (single isomer, unassigned) [Compound 241, 3-(3-Chloro-4-fluorophenyl)-1-(1-(1-(ethylamino)isoquinolin-4-yl)ethyl)-1-methylurea]",EC50,[1],0.11 µM
"CC(c1c[nH]c(=O)c2c(F)c(F)ccc12)N(C)C(=O)N[C@H](C)c1ccccc1 (single isomer, unassigned) [Compound 488]",EC50,[3],9 µM
"CC(c1c[nH]c(=O)c2ccccc12)N(CC1CCCCC1)C(=O)Nc1ccc(F)c(Cl)c1 (single isomer, unassigned) [Compound 194, 3-(3-Chloro-4-fluorophenyl)-1-(cyclohexylmethyl)-1-(1-(1-oxo-1,2-dihydroisoquinolin-4-yl)ethyl)urea]",EC50,[1],0.95 µM
"CC(c1c[nH]c(=O)c2ccccc12)N(CCC#N)C(=O)Nc1ccc(F)c(Cl)c1 (racemic) [Compound 103, 3-(3-chloro-4-fluorophenyl)-1-(2-cyanoethyl)-1-(1-(1-oxo-1,2-dihydroisoquinolin-4-yl)ethyl)urea]",EC50,[4],0.27 µM
"CC(c1c[nH]c(=O)c2cc(F)c(F)cc12)N(CCCO)C(=O)Nc1ccc(F)c(Cl)c1 (single isomer, unassigned) [Compound 289, 3-(3-Chloro-4-fluorophenyl)-1-(1-(6,7-difluoro-1-oxo-1,2-dihydroisoquinolin-4-yl)ethyl)-1-(3-hydroxypropyl)urea]",EC50,[2],0.37 µM
"COCCN(Cc1c[nH]c(=O)c2ccccc12)C(=O)Nc1ccc(F)c(Cl)c1 [Compound 50, 3-(3-Chloro-4-fluorophenyl)-1-(2-methoxyethyl)-1-((1-oxo-1,2-dihydroisoquinolin-4-yl)methyl)urea]",EC50,[5],0.47 µM
"CC(c1cnc(NCCN)c2ccccc12)N(C)C(=O)Nc1ccc(F)c(Cl)c1 (single isomer, unassigned) [Compound 250, 1-(1-(1-((2-Aminoethyl)amino)isoquinolin-4-yl)ethyl)-3-(3-chloro-4-fluorophenyl)-1-methylurea]",EC50,[1],1.5 µM
"CC(c1c[nH]c(=O)c2ccccc12)N(Cc1cncnc1)C(=O)Nc1ccc(F)c(Cl)c1 (single isomer, unassigned) [Compound 320, 3-(3-Chloro-4-fluorophenyl)-1-(1-(1-oxo-1,2-dihydroisoquinolin-4-yl)ethyl)-1-(pyrimidin-5-ylmethyl)urea]",EC50,"Hepatitis B virus, HepDE19, HepDE19 assay, inhibition of formation of relaxed circular DNA (rcDNA), bDNA quantitation, read-out: DE-19bDNA EC50",13 µM
"CC(c1c[nH]c(=O)c2cc(F)ccc12)N(C)C(=O)Nc1ccc(F)cc1 (racemic) [Compound 258, 3-(4-Fluorophenyl)-1-(1-(7-fluoro-1-oxo-1,2-dihydroisoquinolin-4-yl)ethyl)-1-methylurea]",EC50,[4],0.15 µM
"CC(c1c[nH]c(=O)c2c(F)c(F)ccc12)N(C)C(=O)Nc1cccc(F)c1 (single isomer, unassigned) [Compound 455, 1-(1-(7,8-Difluoro-1-oxo-1,2-dihydroisoquinolin-4-yl)ethyl)-3-(3-fluorophenyl)-1-methylurea]",EC50,"read-out: DE-19bDNA EC50, HepDE19 assay, inhibition of formation of relaxed circular DNA (rcDNA), bDNA quantitation",6.3 µM
"C[C@H](c1c[nH]c(=O)c2ccccc12)N(C)C(=O)Nc1cccc(F)c1 [Compound 93, (R)-3-(3-Fluorophenyl)-1-methyl-1-(1-(1-oxo-1,2-dihydroisoquinolin-4-yl)ethyl)urea]",EC50,[5],0.52 µM
"CCC(c1cnc(OC)c2ccccc12)N(CC)C(=O)Nc1ccc(F)c(Cl)c1 (single isomer, unassigned) [Compound 36, 3-(3-Chloro-4-fluorophenyl)-1-ethyl-1-(1-(1-methoxyisoquinolin-4-yl)propyl)urea]",EC50,[1],2.1 µM
"CC(c1c[nH]c(=O)c2ccccc12)N(CCCC(=O)O)C(=O)Nc1ccc(F)c(Cl)c1 (single isomer, unassigned) [Compound 227, 4-(3-(3-Chloro-4-fluorophenyl)-1-(1-(1-oxo-1,2-dihydroisoquinolin-4-yl)ethyl)ureido)butanoic acid]",EC50,[1],4.9 µM
"CC(c1c[nH]c(=O)c2c(F)c(F)ccc12)N(C)C(=O)Nc1cc(F)c(F)c(F)c1 (single isomer, unassigned) [Compound 442, 1-(1-(7,8-Difluoro-1-oxo-1,2-dihydroisoquinolin-4-yl)ethyl)-1-methyl-3-(3,4,5-trifluorophenyl)urea]",EC50,[2],4.7 µM
